Experimental data: US11806366B2, “Peptides and combination of peptides for use in immunotherapy against epithelial ovarian cancer and other cancers” (Immatics Biotechnologies GmbH, priority 2015, dated 2023)

These substances were tested on CD8 T cells from blood of healthy donors (assay: Immunogenicity analysis of HLA class I ligands: aAPC priming of CD8 T cells, MHC-multimer staining). Details: immunogenicity of MUC16/CA-125 ligands, HLA allotype as in Table 11.
Format: cell-based, human
Experimental: Priming of peptide specific cytotoxic lymphocytes (CTLs) was conducted using an established protocol involving artificial antigen presenting cells (aAPCs) (30). aAPCs consisted of streptavidin-coated polystyrene beads (5.6 μm in diameter; Bangs Laboratories, Fishers, Ind.). […] T cells were isolated from whole blood of healthy donors using a CD8 magnetic cell isolation kit (Miltenyi). One million T-cells per well were cultured in 96 well plates (Corning, Corning, N.Y., USA) and stimulated with the same number of loaded aAPCs in the presence of 5 ng/ml IL-12 (PromoCell, Heidelberg, Germany). T cells were stimulated 3 times in total with weekly stimulation interval. 40 U/ml IL-2 was added 2 days subsequent to each stimulation. T-cell priming was assessed by MHC-multimer staining one week after the last stimulation round.
For the applicability of peptide vaccines immunogenicity is a major imperative. In order to evaluate the immunogenic potential of the identified HLA ligands the inventors used a T-cell priming protocol involving artificial antigen presenting cells and T cells isolated from blood of healthy donors. […] This nearly 80% recognition rate verifies the presence of naïve MUC16 recognizing T cells in the human population. Similar results have been obtained for other TOP100 antigens (e.g. IDO1, LGALS1).
With “2 (STETSTVLY; listed as Homo sapiens) [compound 2]” the positive/tested donors was 0/2.
With “5 (AVTNVRTSI; listed as Homo sapiens) [compound 5]” the positive/tested donors was 1/3.
With “7 (DALVLKTV; listed as Homo sapiens) [compound 7]” the positive/tested donors was 1/3.
With “8 (DPYKATSAV; listed as Homo sapiens) [compound 8]” the positive/tested donors was 3/3.
“10 (ERSPVIQTL; listed as Homo sapiens) [compound 10]” was tested, and the positive/tested donors was 1/2.
For “11 (ETILTFHAF; listed as Homo sapiens) [compound 11]”, the positive/tested donors was 2/2.
For “12 (EVISSRGTSM; listed as Homo sapiens) [compound 12]”, the positive/tested donors was 1/3.
For “13 (EVITSSRTTI; listed as Homo sapiens) [compound 13]”, the positive/tested donors was 1/1.
For “14 (EVTSSGRTSI; listed as Homo sapiens) [compound 14]”, the positive/tested donors was 2/3.
For “18 (FQRQGQTAL; listed as Homo sapiens) [compound 18]”, the positive/tested donors was 1/6.
“23 (GTSGTPVSK; listed as Homo sapiens) [compound 23]” was tested, and the positive/tested donors was 0/5.
In the case of “34 (LPHSEITTL; listed as Homo sapiens) [compound 34]”, the positive/tested donors is reported as 0/2.
In the case of “48 (SPHPVTALL; listed as Homo sapiens) [compound 48]”, the positive/tested donors is reported as 0/1.
For “50 (SPQNLRNTL; listed as Homo sapiens) [compound 50]”, the positive/tested donors was 1/1.
In the case of “53 (SPSKAFASL; listed as Homo sapiens) [compound 53]”, the positive/tested donors is reported as 2/2.
“56 (SQGFSHSQM; listed as Homo sapiens) [compound 56]” was tested, and the positive/tested donors was 4/5.
“62 (STSQEIHSATK; listed as Homo sapiens) [compound 62]” was tested, and the positive/tested donors was 2/6.
With “63 (SVLADLVTTK; listed as Homo sapiens) [compound 63]” the positive/tested donors was 0/1.
For “72 (TPGNRAISL; listed as Homo sapiens) [compound 72]”, the positive/tested donors was 2/2.
“77 (VPRSAATTL; listed as Homo sapiens) [compound 77]” was tested, and the positive/tested donors was 1/2.
With “547 (IITEVITRL; listed as Homo sapiens) [compound 547]” the positive/tested donors was 3/10.
With “548 (KMISAIPTL; listed as Homo sapiens) [compound 548]” the positive/tested donors was 4/6.
“549 (TYSEKTTLF; listed as Homo sapiens) [compound 549]” was tested, and the positive/tested donors was 2/2.
